Key:
[1] = test system: ALS (acetolactate synthase); assay: ALS (Acetolactate Synthase) Inhibition Test, pea enzyme; format: biochemical; conditions: enzymoreaction inhibition rate at 10 ppm (5 μg/0.5 ml)
Procedure: To determine the selectivity in enzyme level between crops and weeds, an ALS inhibition test was conducted using pea as a representative of broadleaf crops and barnyardgrass as a representative of gramineous weeds.
After seeds of pea and barnyardgrass were allowed to germinate at 25° C. for 8-14 days in a dark place, partially-purified suspensions (Suspensions A) of acetolactate syntase were separately obtained from seedlings in accordance with the method described in the literature, Plant Physiology, 75, 827-831. In a test tube, […], followed by the addition of 0.15 ml of a 20 mM K2 HPO4 solution and 0.25 ml of a reaction substrate medium which consisted of 40 mM of K2 HPO4, 40 mM of sodium pyruvate, 1 mM of TPP, 1 mM of MgCl2 and 20 μM of FAD so that 0.4 ml of a reaction solution (Solution B) was prepared. Added to 0.4 ml of Solution B was 0.1 ml of Suspension A. After the resultant mixture was shaken for 1 hour in a thermostat water bath controlled at 30° C., 50 μl of 6N sulfuric acid were added to terminate the reaction.
Next, the reaction-terminated liquid mixture was transferred into a thermostat water bath controlled at 60° C. and was heated for 15 minutes. Thereafter, 0.5 ml of a 0.5% creatine solution and 0.5 ml of a 5% alkaline α-naphthol solution were added, and the resultant mixture was maintained at 60° C. for 15 minutes. As a result, the test solution developed a pink-red color. After the above operation, the absorbance of the test solution at 525 nm was measured by a spectrophotometer (Absorbance 1 of Test Compound).
On the other hand, the absorbance (Absorbance 2 of Blank) of a solution obtained by subjecting a portion of Solution B, said portion being free of the test compound, to the above operation and the absorbance (Absorbance 3 of sulfuric acid terminated) of another solution obtained by subjecting another portion of Solution B, said portion containing 50 μl of 6N sulfuric acid as a test compound, were measured at the same time. […] [formula]

[2] = test system: Barnyardgrass (Echinochloa crus-galli); assay: Upland Soil Application Test; format: in vivo; conditions: 30 g ai/a; soil application before emergence, wettable powder; observed 30 days later
Procedure: (§1) Resin-made 1/2500-are pots were filled with the soil of an upland field. After they were fertilized, soybean, corn and cotton were seeded and 2-3 cm soil covering was applied. Seeds of redroot pigweed, morningglory (Ipomoea purpurea), common lambsquarters, barnyardgrass, green foxtail, large crabgrass, foxtail meadow and johnsongrass had been uniformly mixed with the soil. They were allowed to germinate in a green house. One day later (before emergence of weeds), a wettable powder prepared from a predetermined amount of each test compound in a similar manner to the method described in Formulation Example 1 was diluted with water and then sprayed evenly at an application rate equal to 10 l per are onto the surface of the soil by means of a pressure-operated ULV (ultra low volume) sprayer. Influence to the crops and weeds were observed 30 days later. The results are shown in Table 3, in which the degree of damages of each test plant and the degree of injury to each crop were determined by comparing the air-dried weights of the test plant and crop with those of the corresponding plant and crop in untreated pots and are shown in accordance with the following standard: […]

[3] = test system: Common lambsquarters; assay: Upland Soil Application Test; format: in vivo; conditions: 30 g ai/a; soil application before emergence, wettable powder; observed 30 days later
Procedure: as §1

[4] = test system: Crabgrass (Digitaria adsendens); assay: Upland Soil Application Test; format: in vivo; conditions: 30 g ai/a; soil application before emergence, wettable powder; observed 30 days later
Procedure: as §1

[5] = test system: Foxtail (Setaria viridis); assay: Upland Soil Application Test; format: in vivo; conditions: 30 g ai/a; soil application before emergence, wettable powder; observed 30 days later
Procedure: as §1

[6] = test system: Foxtail meadow; assay: Upland Soil Application Test; format: in vivo; conditions: 30 g ai/a; soil application before emergence, wettable powder; observed 30 days later
Procedure: as §1

[7] = test system: Johnsongrass; assay: Upland Soil Application Test; format: in vivo; conditions: 30 g ai/a; soil application before emergence, wettable powder; observed 30 days later
Procedure: as §1

[8] = test system: Redroot Pigweed; assay: Upland Soil Application Test; format: in vivo; conditions: 30 g ai/a; soil application before emergence, wettable powder; observed 30 days later
Procedure: as §1

[9] = test system: Corn (Zea maize); assay: Upland Soil Application Test, crop injury; format: in vivo; conditions: 30 g ai/a; soil application before emergence, wettable powder; observed 30 days later
Procedure: as §1

[10] = test system: Cotton (Gossypium indicum); assay: Upland Soil Application Test, crop injury; format: in vivo; conditions: 30 g ai/a; soil application before emergence, wettable powder; observed 30 days later
Procedure: as §1

[11] = test system: Soybean (Glycine max); assay: Upland Soil Application Test, crop injury; format: in vivo; conditions: 30 g ai/a; soil application before emergence, wettable powder; observed 30 days later
Procedure: as §1

[12] = test system: Rice (Oryza sativa); assay: Submerged Soil Treatment Test (Pre-Emergence Treatment), crop injury; format: in vivo; conditions: 30 g ai/a, granule, transplanted rice, observed 30 days later
Procedure: (§2) 1/5000-are Wagner pots were filled with soil. Seeds or tubers of barnyardgrass, bulrush and Sagittaria pygmaea were seeded or planted under submerged condition. Two pairs of rice seedlings (2-3 leaf stage), which had been reared in advance, were transplanted to each pot and were allowed to germinate in a green house. Each pair consisted of two rice seedlings. On day later (before emergence of weeds), each pot was treated with a granule which had been prepared by processing a predetermined amount of the test composition in accordance with a similar method to the method described in Formulation Example 9. The state of emergence of weeds and the state of injury of rice were observed 30 days later. In the table, the degrees of damages of the test plants and the degrees of injury of rice are shown in a similar manner to Example 2.

[13] = test system: Arrowhead sp. (Sagittaria pygmaea); assay: Submerged Soil Treatment Test (Growth Stage Treatment); format: in vivo; conditions: 30 g ai/a, growth stage treatment (barnyardgrass two-leaf stage), granule, observed 30 days later
Procedure: as §2, with “allowed to grow in a” for “allowed to germinate in a”, “rice seedlings. When the barnyardgrass grew to the two-leaf stage, each pot” for “rice seedlings. On day later (before emergence of weeds), each pot”, “injury of the rice are” for “injury of rice are”

[14] = test system: Barnyardgrass (Echinochloa crus-galli); assay: as above; format: in vivo; conditions: 30 g ai/a, growth stage treatment (barnyardgrass two-leaf stage), granule, observed 30 days later
Procedure: as §2, with “allowed to grow in a” for “allowed to germinate in a”, “rice seedlings. When the barnyardgrass grew to the two-leaf stage, each pot” for “rice seedlings. On day later (before emergence of weeds), each pot”, “injury of the rice are” for “injury of rice are”

[15] = test system: Bulrush (Scirpus juncoides); assay: as above; format: in vivo; conditions: 30 g ai/a, growth stage treatment (barnyardgrass two-leaf stage), granule, observed 30 days later
Procedure: as §2, with “allowed to grow in a” for “allowed to germinate in a”, “rice seedlings. When the barnyardgrass grew to the two-leaf stage, each pot” for “rice seedlings. On day later (before emergence of weeds), each pot”, “injury of the rice are” for “injury of rice are”

CCOC(=O)c1ncccc1Oc1nc(OC)cc(OC)n1 [A, reference compound]
Inhibition rate (%) Pea [1]: 52% | Herbicidal effects Barnyardgrass (Echinochloa crus-galli) [2]: 3 (11-40 (Medium damages)) | Herbicidal effects Common lambquarters [3]: 4 (6-10 (Severe damages)) | Herbicidal effects Crabgrass (Digitaria adsendens) [4]: 4 (6-10 (Severe damages)) | Herbicidal effects Foxtail (Setaria viridis) [5]: 5 (0-5 (Death)) | Herbicidal effects Foxtail meadow [6]: 5 (0-5 (Death)) | Herbicidal effects Johnsongrass [7]: 5 (0-5 (Death)) | Herbicidal effects Redroot Pigweed [8]: 4 (6-10 (Severe damages)) | Crop injury Corn (Zea maize) [9]: 5 (0-5 (Death)) | Crop injury Cotton (Gossypium indicum) [10]: 5 (0-5 (Death)) | Crop injury Soybean (Glycine max) [11]: 5 (0-5 (Death)) | Crop injury Rice (Oryza sativa) [12]: 5 (0-5 (Death)) | Herbicidal effects Arrowhead sp. (Sagittaria pygmaea) [13]: 4 (6-10 (Severe damages)) | Herbicidal effects Barnyardgrass (Echinochloa crus-galli) [14]: 5 (0-5 (Death)) | Herbicidal effects Bulrush (Scirpus juncoides) [15]: 4 (6-10 (Severe damages))

COc1cc(OC)nc(Oc2ccccc2C=O)n1 [B, reference compound]
Inhibition rate (%) Pea [1]: 72% | Herbicidal effects Barnyardgrass (Echinochloa crus-galli) [2]: 3 (11-40 (Medium damages)) | Herbicidal effects Common lambquarters [3]: 3 (11-40 (Medium damages)) | Herbicidal effects Crabgrass (Digitaria adsendens) [4]: 4 (6-10 (Severe damages)) | Herbicidal effects Foxtail (Setaria viridis) [5]: 4 (6-10 (Severe damages)) | Herbicidal effects Foxtail meadow [6]: 4 (6-10 (Severe damages)) | Herbicidal effects Johnsongrass [7]: 4 (6-10 (Severe damages)) | Herbicidal effects Redroot Pigweed [8]: 3 (11-40 (Medium damages)) | Crop injury Corn (Zea maize) [9]: 5 (0-5 (Death)) | Crop injury Cotton (Gossypium indicum) [10]: 5 (0-5 (Death)) | Crop injury Soybean (Glycine max) [11]: 5 (0-5 (Death)) | Crop injury Rice (Oryza sativa) [12]: 5 (0-5 (Death)) | Herbicidal effects Arrowhead sp. (Sagittaria pygmaea) [13]: 4 (6-10 (Severe damages)) | Herbicidal effects Barnyardgrass (Echinochloa crus-galli) [14]: 5 (0-5 (Death)) | Herbicidal effects Bulrush (Scirpus juncoides) [15]: 5 (0-5 (Death))

COc1cc(OC)nc(Oc2cccnc2C=O)n1 [Compound No. 1, 4,6-dimethoxy-2-(2-formyl-3-pyridyloxy)pyrimidine]
Inhibition rate (%) Pea [1]: 3% | Herbicidal effects Barnyardgrass (Echinochloa crus-galli) [2]: 3 (11-40 (Medium damages)) | Herbicidal effects Common lambquarters [3]: 2 (41-70 (Small damages)) | Herbicidal effects Crabgrass (Digitaria adsendens) [4]: 2 (41-70 (Small damages)) | Herbicidal effects Foxtail (Setaria viridis) [5]: 3 (11-40 (Medium damages)) | Herbicidal effects Foxtail meadow [6]: 3 (11-40 (Medium damages)) | Herbicidal effects Johnsongrass [7]: 4 (6-10 (Severe damages)) | Herbicidal effects Redroot Pigweed [8]: 3 (11-40 (Medium damages)) | Crop injury Corn (Zea maize) [9]: 0 (91-100 (No damages)) | Crop injury Cotton (Gossypium indicum) [10]: 0 (91-100 (No damages)) | Crop injury Soybean (Glycine max) [11]: 0 (91-100 (No damages)) | Crop injury Rice (Oryza sativa) [12]: 1 (71-90 (Slight damages)) | Herbicidal effects Arrowhead sp. (Sagittaria pygmaea) [13]: 4 (6-10 (Severe damages)) | Herbicidal effects Barnyardgrass (Echinochloa crus-galli) [14]: 5 (0-5 (Death)) | Herbicidal effects Bulrush (Scirpus juncoides) [15]: 5 (0-5 (Death))

COc1cc(OC)nc(Oc2cccnc2C(OC)OC)n1 [Compound No. 2, 3-(4.6-dimethoxy-2-pyrimidinyloxy)-2-pyridinecarboxaldehyde dimethylacetal]
Inhibition rate (%) Pea [1]: 0% | Herbicidal effects Barnyardgrass (Echinochloa crus-galli) [2]: 4 (6-10 (Severe damages)) | Herbicidal effects Common lambquarters [3]: 5 (0-5 (Death)) | Herbicidal effects Crabgrass (Digitaria adsendens) [4]: 5 (0-5 (Death)) | Herbicidal effects Foxtail (Setaria viridis) [5]: 5 (0-5 (Death)) | Herbicidal effects Foxtail meadow [6]: 5 (0-5 (Death)) | Herbicidal effects Johnsongrass [7]: 5 (0-5 (Death)) | Herbicidal effects Redroot Pigweed [8]: 4 (6-10 (Severe damages)) | Crop injury Corn (Zea maize) [9]: 0 (91-100 (No damages)) | Crop injury Cotton (Gossypium indicum) [10]: 0 (91-100 (No damages)) | Crop injury Soybean (Glycine max) [11]: 0 (91-100 (No damages)) | Crop injury Rice (Oryza sativa) [12]: 0 (91-100 (No damages)) | Herbicidal effects Arrowhead sp. (Sagittaria pygmaea) [13]: 4 (6-10 (Severe damages)) | Herbicidal effects Barnyardgrass (Echinochloa crus-galli) [14]: 4 (6-10 (Severe damages)) | Herbicidal effects Bulrush (Scirpus juncoides) [15]: 4 (6-10 (Severe damages))

CCOC(OCC)c1ncccc1Oc1nc(OC)cc(OC)n1 [Compound No. 3, 3-(4,6-dimethoxy-2-pyrimidinyloxy)-2-pyridinecarboxaldehyde diethylacetal]
Inhibition rate (%) Pea [1]: 0% | Herbicidal effects Barnyardgrass (Echinochloa crus-galli) [2]: 4 (6-10 (Severe damages)) | Herbicidal effects Common lambquarters [3]: 5 (0-5 (Death)) | Herbicidal effects Crabgrass (Digitaria adsendens) [4]: 4 (6-10 (Severe damages)) | Herbicidal effects Foxtail (Setaria viridis) [5]: 4 (6-10 (Severe damages)) | Herbicidal effects Foxtail meadow [6]: 5 (0-5 (Death)) | Herbicidal effects Johnsongrass [7]: 5 (0-5 (Death)) | Herbicidal effects Redroot Pigweed [8]: 5 (0-5 (Death)) | Crop injury Corn (Zea maize) [9]: 0 (91-100 (No damages)) | Crop injury Cotton (Gossypium indicum) [10]: 0 (91-100 (No damages)) | Crop injury Soybean (Glycine max) [11]: 0 (91-100 (No damages)) | Crop injury Rice (Oryza sativa) [12]: 0 (91-100 (No damages)) | Herbicidal effects Arrowhead sp. (Sagittaria pygmaea) [13]: 5 (0-5 (Death)) | Herbicidal effects Barnyardgrass (Echinochloa crus-galli) [14]: 5 (0-5 (Death)) | Herbicidal effects Bulrush (Scirpus juncoides) [15]: 5 (0-5 (Death))

CCCCOC(OCCCC)c1ncccc1Oc1nc(OC)cc(OC)n1 [Compound No. 4]
Inhibition rate (%) Pea [1]: 0% | Herbicidal effects Barnyardgrass (Echinochloa crus-galli) [2]: 5 (0-5 (Death)) | Herbicidal effects Common lambquarters [3]: 5 (0-5 (Death)) | Herbicidal effects Crabgrass (Digitaria adsendens) [4]: 5 (0-5 (Death)) | Herbicidal effects Foxtail (Setaria viridis) [5]: 5 (0-5 (Death)) | Herbicidal effects Foxtail meadow [6]: 5 (0-5 (Death)) | Herbicidal effects Johnsongrass [7]: 5 (0-5 (Death)) | Herbicidal effects Redroot Pigweed [8]: 5 (0-5 (Death)) | Crop injury Corn (Zea maize) [9]: 0 (91-100 (No damages)) | Crop injury Cotton (Gossypium indicum) [10]: 0 (91-100 (No damages)) | Crop injury Soybean (Glycine max) [11]: 0 (91-100 (No damages)) | Crop injury Rice (Oryza sativa) [12]: 0 (91-100 (No damages)) | Herbicidal effects Arrowhead sp. (Sagittaria pygmaea) [13]: 4 (6-10 (Severe damages)) | Herbicidal effects Barnyardgrass (Echinochloa crus-galli) [14]: 5 (0-5 (Death)) | Herbicidal effects Bulrush (Scirpus juncoides) [15]: 4 (6-10 (Severe damages))
